# Assay results reported in US20110319397A1 (priority 2009, published 2011).
# Target: α7-subtype of nicotinic receptors (Mus musculus, UniProt P49582)
# Format: in vivo, mice
# Details: ex vivo, mouse hippocampal membranes; dose inhibiting specific binding of 3H-α-bungarotoxin (1 nM) by 50%
# α7-subtype of nicotinic receptors, sequence (P49582 23-502): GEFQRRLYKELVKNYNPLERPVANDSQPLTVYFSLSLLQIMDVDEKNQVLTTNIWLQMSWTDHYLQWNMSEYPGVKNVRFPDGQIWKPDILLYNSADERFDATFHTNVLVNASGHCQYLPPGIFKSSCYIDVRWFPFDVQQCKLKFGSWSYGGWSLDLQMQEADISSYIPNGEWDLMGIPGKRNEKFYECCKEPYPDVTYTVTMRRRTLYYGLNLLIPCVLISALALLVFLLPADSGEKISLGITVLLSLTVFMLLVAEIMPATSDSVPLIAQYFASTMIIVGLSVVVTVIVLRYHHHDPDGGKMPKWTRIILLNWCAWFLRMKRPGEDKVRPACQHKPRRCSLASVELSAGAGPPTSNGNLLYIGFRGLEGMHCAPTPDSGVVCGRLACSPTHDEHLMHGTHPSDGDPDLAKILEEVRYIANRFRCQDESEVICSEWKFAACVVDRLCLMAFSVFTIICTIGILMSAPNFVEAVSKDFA
smiles,measurement,value
"[O-][N+]12CCC(CC1)N(c1nnc(-c3ccoc3)o1)CC2 [Compound 1, 4-(5-Furan-3-yl-[1,3,4]oxadiazol-2-yl)-1,4-diaza-bicyclo[3.2.2]nonane 1-oxide]","EC50 (mg/kg), Inhibition of 3H-α-Bungarotoxine Binding",40 mg/kg
